Laboratory results as given in US20090143454A1, “Pyrazoline Derivatives and Their Use As Pesticides” (BAYER CROPSCIENCE AG, priority 2001, published 2009).

Experiments:
Format in all cases: in vivo
[1] = system: Heliothis virescens caterpillars; assay: Heliothis virescens test; settings: 500 ppm, soyabean shoots dipped
Protocol: (§1) To produce a suitable preparation of active compound, 1 part by weight of active compound is mixed with the stated amounts of solvent and emulsifier, and the concentrate is diluted with emulsifier-containing water to the desired concentration.
Soyabean shoots (Glycine max) are treated by being dipped into the preparation of active compound of the desired concentration and are populated with Heliothis virescens caterpillars while the leaves are still moist.
(§2) After the desired period of time, the kill in % is determined. 100% means that all caterpillars have been killed; 0% means that none of the caterpillars have been killed.

[2] = system: larvae of the mustard beetle (Phaedon cochleariae); assay: Phaedon larvae test; settings: 168 h, cabbage leaves dipped, after 7 d, read-out: Kill rate in % after 7 d
Protocol: To produce a suitable preparation of active compound, 1 part by weight of active compound is mixed with the stated amounts of solvent and emulsifier, and the concentrate is diluted with emulsifier-containing water to the desired concentration. Cabbage leaves (Brassica oleracea) are treated by being dipped into the preparation of active compound of the desired concentration and are populated with larvae of the mustard beetle (Phaedon cochleariae) while the leaves are still moist.

[3] = system: caterpillars of the diamond back moth (Plutella xylostella); assay: Plutella test; settings: 500 ppm, cabbage leaves dipped
Protocol: as §1
Cabbage leaves (Brassica oleracea) are treated by being dipped into the preparation of active compound of the desired concentration and are populated with caterpillars of the diamond back moth (Plutella xylostella) while the leaves are still moist.
as §2

[4] = system: caterpillars of the army worm (Spodoptera frugiperda); assay: Spodoptera frugiperda test; settings: 168 h, cabbage leaves dipped, after 7 d, read-out: Kill rate in % after 7 d
Protocol: as §1
Cabbage leaves (Brassica oleracea) are treated by being dipped into the preparation of active compound of the desired concentration and are populated with caterpillars of the army worm (Spodoptera frugiperda) while the leaves are still moist.
as §2

[5] = system: Heliothis virescens larvae; assay: Test for persistency: Heliothis virescens; settings: 20 ppm, cotton plants sprayed
Protocol: as §1
Cotton plants (Gossypium hirsutum) are sprayed with a preparation of active compound of the desired concentration. After the stated number of days, Heliothis virescens larvae are, in infection chambers, placed on the treated leaves.
as §2

[6] = system: larvae of the army worm (Spodoptera frugiperda); assay: Test for persistency: Spodoptera frugiperda; settings: 20 ppm, cotton plants sprayed
Protocol: as §1
Cotton plants (Gossypium hirsutum) are sprayed with a preparation of active compound of the desired concentration. After the stated number of days, larvae of the army worm (Spodoptera frugiperda) are, in infection chambers, placed on the treated leaves.
as §2

Lucilia cuprina larvae = assay: Blowfly larvae test/development-inhibitory action; settings: after 14 d
Protocol: (§3) 20 mg of active compound are dissolved in 1 ml of dimethyl sulphoxide. More dilute concentrations are prepared by dilution with distilled water.
About 20 Lucilia cuprina larvae are introduced into a test tube which contains about 1 cm^3 of horsemeat and 0.5 ml of the preparation of active compound to be tested. The activity of the preparation of active compound is determined after 24 and 48 hours. The test tubes are transferred into a beaker whose bottom is covered with sand. After a further 2 days, the test tubes are removed and the pupae are counted.
The activity of the preparation of active compound is assessed using the number of flies that have hatched after 1.5 times the development period of an untreated control. 100% means that none of the flies have hatched; 0% means that all of the flies have hatched normally.

Periplaneta americana = assay: Cockroach test; settings: dipped 1 minute, after 7 days
Protocol: as §3
4 test animals are dipped for 1 minute into the preparation of active compound to be tested. After transfer into a plastic beaker and storage for 7 days in an air-conditioned room the killing rate is determined. 100% means, that all cockroaches have been killed, 0% means, that none of the cockroaches have been killed.

N#Cc1cnn(C2CN(C(=O)Nc3ccc(OC(F)(F)F)cc3)N=C2c2ccc(Cl)cc2)c1 (centres unmarked) [drawing 38]
Kill rate in % after 7 d [1]: 100%

N#Cc1cnn(C2CN(C(=O)Nc3ccc(C(F)(F)F)cc3)N=C2c2ccc(Cl)cc2)c1 (centres unmarked) [drawing 39]
Kill rate in % after 7 d [1]: 100%

N#Cc1cnn(C2CN(C(=O)Nc3ccc(Cl)cc3)N=C2c2ccc(Cl)cc2)c1 (centres unmarked) [drawing 40]
Kill rate in % after 7 d [1]: 100%

N#Cc1cnn(C2CN(C(=O)Nc3ccc(SC(F)(F)F)cc3)N=C2c2ccc(Cl)cc2)c1 (centres unmarked) [drawing 41]
Kill rate in % after 7 d [1]: 100%

N#Cc1cnn(C2CN(C(=O)Nc3ccc(OC(F)(F)F)cc3)N=C2c2ccc(Cl)cc2)c1 (centres unmarked) [drawing 43]
pest or weed control at 500 ppm [2]: 100%

N#Cc1cnn(C2CN(C(=O)Nc3ccc(Cl)cc3)N=C2c2ccc(Cl)cc2)c1 (centres unmarked) [drawing 44]
pest or weed control at 500 ppm [2]: 100%

COC(=O)N(C(=O)N1CC(n2cc(C#N)cn2)C(c2ccc(Cl)cc2)=N1)c1ccc(OC(F)(F)F)cc1 (centres unmarked) [drawing 45]
pest or weed control at 500 ppm [2]: 100%

N#CCN(C(=O)N1CC(n2cc(C#N)cn2)C(c2ccc(Cl)cc2)=N1)c1ccc(OC(F)(F)F)cc1 (centres unmarked) [drawing 46]
pest or weed control at 500 ppm [2]: 100%

CCOC(=O)N(C(=O)N1CC(n2cc(C#N)cn2)C(c2ccc(Cl)cc2)=N1)c1ccc(OC(F)(F)F)cc1 (centres unmarked) [drawing 47]
pest or weed control at 500 ppm [2]: 100%

N#Cc1cnn(C2CN(C(=O)Nc3ccc(OC(F)(F)F)cc3)N=C2c2ccc(Br)cc2)c1 (centres unmarked) [drawing 49]
pest or weed control at 500 ppm [2]: 100%

N#Cc1cnn(C2CN(C(=O)Nc3ccc(SC(F)(F)F)cc3)N=C2c2ccc(Br)cc2)c1 (centres unmarked) [drawing 50]
pest or weed control at 500 ppm [2]: 100%

N#Cc1cnn(C2CN(C(=O)Nc3ccc(OC(F)(F)F)cc3)N=C2c2ccc(I)cc2)c1 (centres unmarked) [drawing 51]
pest or weed control at 500 ppm [2]: 100%

N#Cc1cnn(C2CN(C(=O)Nc3ccc(S(=O)(=O)C(F)(F)F)cc3)N=C2c2ccc(Cl)cc2)c1 (centres unmarked) [drawing 52]
pest or weed control at 500 ppm [2]: 100%

N#Cc1cnn(C2CN(C(=O)Nc3ccc(OC(F)(F)F)cc3)N=C2c2ccc(Cl)cc2)c1 (centres unmarked) [drawing 53]
Kill rate in % after 7 d [3]: 100%

N#Cc1cnn(C2CN(C(=O)Nc3ccc(C(F)(F)F)cc3)N=C2c2ccc(Cl)cc2)c1 (centres unmarked) [drawing 54]
Kill rate in % after 7 d [3]: 100%

N#Cc1cnn(C2CN(C(=O)Nc3ccc(Cl)cc3)N=C2c2ccc(Cl)cc2)c1 (centres unmarked) [drawing 55]
Kill rate in % after 7 d [3]: 100%

N#Cc1cnn(C2CN(C(=O)Nc3ccc(SC(F)(F)F)cc3)N=C2c2ccc(Cl)cc2)c1 (centres unmarked) [drawing 56]
Kill rate in % after 7 d [3]: 100%

N#Cc1cnn(C2CN(C(=O)Nc3ccc(C(F)(F)F)cc3)N=C2c2ccc(Cl)cc2)c1 (centres unmarked) [drawing 62]
pest or weed control at 500 ppm [4]: 100%

N#CCN(C(=O)N1CC(n2cc(C#N)cn2)C(c2ccc(Cl)cc2)=N1)c1ccc(OC(F)(F)F)cc1 (centres unmarked) [drawing 63]
pest or weed control at 500 ppm [4]: 100%

CCOC(=O)N(C(=O)N1CC(n2cc(C#N)cn2)C(c2ccc(Cl)cc2)=N1)c1ccc(OC(F)(F)F)cc1 (centres unmarked) [drawing 64]
pest or weed control at 500 ppm [4]: 100%

N#Cc1cnn(C2CN(C(=O)Nc3ccc(OC(F)(F)F)cc3)N=C2c2ccc(Br)cc2)c1 (centres unmarked) [drawing 65]
pest or weed control at 500 ppm [4]: 100%

N#Cc1cnn(C2CN(C(=O)Nc3ccc(SC(F)(F)F)cc3)N=C2c2ccc(Br)cc2)c1 (centres unmarked) [drawing 66]
pest or weed control at 500 ppm [4]: 100%

N#Cc1cnn(C2CN(C(=O)Nc3ccc(S(=O)(=O)C(F)(F)F)cc3)N=C2c2ccc(Br)cc2)c1 (centres unmarked) [drawing 67]
pest or weed control at 500 ppm [4]: 100%

N#Cc1cnn(C2CN(C(=O)Nc3ccc(OC(F)(F)F)cc3)N=C2c2ccc(I)cc2)c1 (centres unmarked) [drawing 68]
pest or weed control at 500 ppm [4]: 100%

N#Cc1cnn(C2CN(C(=O)Nc3ccc(SC(F)(F)F)cc3)N=C2c2ccc(I)cc2)c1 (centres unmarked) [drawing 69]
pest or weed control at 500 ppm [4]: 100%

N#Cc1cnn(C2CN(C(=O)Nc3ccc(OC(F)(F)F)cc3)N=C2c2ccc(SC(F)(F)F)cc2)c1 (centres unmarked) [drawing 70]
pest or weed control at 500 ppm [4]: 100%

N#Cc1cnn(C2CN(C(=O)Nc3ccc(SC(F)(F)F)cc3)N=C2c2ccc(SC(F)(F)F)cc2)c1 (centres unmarked) [drawing 71]
pest or weed control at 500 ppm [4]: 100%

N#Cc1cnn(C2CN(C(=O)Nc3ccc(OC(F)(F)F)cc3)N=C2c2ccc(Cl)cc2)c1 (centres unmarked) [drawing 72]
Kill rate in % 7 d after infection ([5]; infection after 5 d): 100% | Kill rate in % 7 d after infection ([5]; infection after 12 d): 90% | Kill rate in % 7 d after infection ([5]; infection after 19 d): 100%

N#Cc1cnn(C2CN(C(=O)Nc3ccc(C(F)(F)F)cc3)N=C2c2ccc(Cl)cc2)c1 (centres unmarked) [drawing 73]
Kill rate in % 7 d after infection ([5]; infection after 5 d): 100% | Kill rate in % 7 d after infection ([5]; infection after 12 d): 100% | Kill rate in % 7 d after infection ([5]; infection after 19 d): 90%

N#Cc1cnn(C2CN(C(=O)Nc3ccc(SC(F)(F)F)cc3)N=C2c2ccc(Cl)cc2)c1 (centres unmarked) [drawing 74]
Kill rate in % 7 d after infection ([5]; infection after 5 d): 80% | Kill rate in % 7 d after infection ([5]; infection after 12 d): 70% | Kill rate in % 7 d after infection ([5]; infection after 19 d): 90%

N#Cc1cnn(C2CN(C(=O)Nc3ccc(OC(F)(F)F)cc3)N=C2c2ccc(Cl)cc2)c1 (centres unmarked) [drawing 75]
Kill rate in % 7 d after infection ([6]; infection after 5 d): infection after: 5^d 12^d 19^d 100 100 100% | Kill rate in % 7 d after infection ([6]; infection after 12 d): infection after: 5^d 12^d 19^d 100 100 100% | Kill rate in % 7 d after infection ([6]; infection after 19 d): infection after: 5^d 12^d 19^d 100 100 100%

N#Cc1cnn(C2CN(C(=O)Nc3ccc(C(F)(F)F)cc3)N=C2c2ccc(Cl)cc2)c1 (centres unmarked) [drawing 76]
Kill rate in % 7 d after infection ([6]; infection after 5 d): infection after: 5^d 12^d 19^d 100 100 100% | Kill rate in % 7 d after infection ([6]; infection after 12 d): infection after: 5^d 12^d 19^d 100 100 100% | Kill rate in % 7 d after infection ([6]; infection after 19 d): infection after: 5^d 12^d 19^d 100 100 100%

N#Cc1cnn(C2CN(C(=O)Nc3ccc(SC(F)(F)F)cc3)N=C2c2ccc(Cl)cc2)c1 (centres unmarked) [drawing 77]
Kill rate in % 7 d after infection ([6]; infection after 5 d): 90% | Kill rate in % 7 d after infection ([6]; infection after 12 d): 100% | Kill rate in % 7 d after infection ([6]; infection after 19 d): 100%

N#Cc1cnn(C2CN(C(=O)Nc3ccc(C(F)(F)F)cc3)N=C2c2ccc(Cl)cc2)c1 (centres unmarked) [drawing 86]
activity/kill rate in % after 14 d (Lucilia cuprina larvae; 20 ppm): 100/100% | activity/kill rate in % after 14 d (Lucilia cuprina larvae; 100 ppm): 100/100%

N#Cc1cnn(C2CN(C(=O)Nc3ccc(Cl)cc3)N=C2c2ccc(Cl)cc2)c1 (centres unmarked) [drawing 87]
activity/kill rate in % after 14 d (Lucilia cuprina larvae; 20 ppm): 100/100% | activity/kill rate in % after 14 d (Lucilia cuprina larvae; 100 ppm): 100/100%

N#Cc1cnn(C2CN(C(=O)Nc3ccc(SC(F)(F)F)cc3)N=C2c2ccc(Cl)cc2)c1 (centres unmarked) [drawing 88]
activity/kill rate in % after 14 d (Lucilia cuprina larvae; 20 ppm): 100/100% | activity/kill rate in % after 14 d (Lucilia cuprina larvae; 100 ppm): 100/100%

CCOC(=O)N(C(=O)N1CC(n2cc(C#N)cn2)C(c2ccc(Cl)cc2)=N1)c1ccc(OC(F)(F)F)cc1 (centres unmarked) [drawing 89]
activity/kill rate in % after 14 d (Lucilia cuprina larvae; 20 ppm): 100%

N#Cc1cnn(C2CN(C(=O)Nc3ccc([S+]([O-])C(F)(F)F)cc3)N=C2c2ccc(Cl)cc2)c1 (centres unmarked) [drawing 90]
activity/kill rate in % after 14 d (Lucilia cuprina larvae; 20 ppm): 100/100% | activity/kill rate in % after 14 d (Lucilia cuprina larvae; 100 ppm): 100/100%

N#Cc1cnn(C2CN(C(=O)Nc3ccc(OC(F)(F)F)cc3)N=C2c2ccc(Cl)cc2)c1 (centres unmarked) [drawing 97]
activity/kill rate in % (Periplaneta americana; 100 ppm): 25%

N#Cc1cnn(C2CN(C(=O)Nc3ccc(C(F)(F)F)cc3)N=C2c2ccc(Cl)cc2)c1 (centres unmarked) [drawing 98]
activity/kill rate in % (Periplaneta americana; 100 ppm): 50%

COC(=O)N(C(=O)N1CC(n2cc(C#N)cn2)C(c2ccc(Cl)cc2)=N1)c1ccc(OC(F)(F)F)cc1 (centres unmarked) [drawing 99]
activity/kill rate in % (Periplaneta americana; 20 ppm): 25% | activity/kill rate in % (Periplaneta americana; 100 ppm): 100%

CCOC(=O)N(C(=O)N1CC(n2cc(C#N)cn2)C(c2ccc(Cl)cc2)=N1)c1ccc(OC(F)(F)F)cc1 (centres unmarked) [drawing 100]
activity/kill rate in % (Periplaneta americana; 20 ppm): 25% | activity/kill rate in % (Periplaneta americana; 100 ppm): 75%

N#Cc1cnn(C2CN(C(=O)Nc3ccc(OC(F)(F)F)cc3)N=C2c2ccc(Br)cc2)c1 (centres unmarked) [drawing 101]
activity/kill rate in % (Periplaneta americana; 100 ppm): 25%

N#Cc1cnn(C2CN(C(=O)Nc3ccc(OC(F)(F)F)cc3)N=C2c2ccc(I)cc2)c1 (centres unmarked) [drawing 102]
activity/kill rate in % (Periplaneta americana; 100 ppm): 50%
